In PubChem BioAssay AID1508599 (Sanford-Burnham Center for Chemical Genomics, 2020):
pIC50: −log10 of the molar value. Values joined by “and” are separate entries in the source; they are usually repeats but may differ in a detail not shown here. Equal entries are not always repeated. Active and inactive are the calls of the source.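 The calls were made as follows: active = IC50 under 30000 nM, about half a log past the top tested dose; inactive = the rest.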

Molecular target: Baculoviral IAP repeat-containing protein 2 (Homo sapiens) (UniProt Q13490)
Sequence (Q13490 whole entry, looked up): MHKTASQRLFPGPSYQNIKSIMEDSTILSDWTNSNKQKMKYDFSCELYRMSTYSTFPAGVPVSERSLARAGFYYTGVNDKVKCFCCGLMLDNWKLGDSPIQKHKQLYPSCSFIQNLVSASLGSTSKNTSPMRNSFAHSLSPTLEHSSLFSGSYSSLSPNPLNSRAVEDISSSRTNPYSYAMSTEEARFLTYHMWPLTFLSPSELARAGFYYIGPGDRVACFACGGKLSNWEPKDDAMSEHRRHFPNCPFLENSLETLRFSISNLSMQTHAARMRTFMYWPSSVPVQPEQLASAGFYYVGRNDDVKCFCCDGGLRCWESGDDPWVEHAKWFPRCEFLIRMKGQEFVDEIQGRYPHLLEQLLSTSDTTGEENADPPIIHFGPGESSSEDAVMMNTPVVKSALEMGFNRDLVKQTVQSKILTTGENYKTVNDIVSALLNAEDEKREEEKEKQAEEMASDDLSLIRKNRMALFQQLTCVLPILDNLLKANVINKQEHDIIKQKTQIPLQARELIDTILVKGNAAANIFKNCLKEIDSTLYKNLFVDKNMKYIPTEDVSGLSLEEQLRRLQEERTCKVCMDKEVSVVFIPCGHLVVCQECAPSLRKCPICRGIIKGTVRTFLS
Experiment: SMAC mimetics displacing peptide from cIAP1 – biochemical, SAR follow-up (AID 1508599)
Settings: cIAP1 BIR3 / rhodamine-SMAC peptide fluorescence polarization

| Compound | pIC50 | IC50 |
| --- | --- | --- |
| CN[C@@H](C)C(=O)N[C@H]1CCCN[C@H]2CCC(C(=O)Nc3cccc4ccccc34)N2C1=O (some centres not stated) | 4.68 |  |
| CN[C@@H](C)C(=O)N[C@H]1CCO[C@H]2CC(C)(C)[C@@H](C(=O)N[C@@H]3CCCc4ccccc43)N2C1=O | 6.68 |  |
| CN[C@@H](C)C(=O)N[C@H]1CCS(=O)(=O)[C@H]2CC[C@@H](C(=O)N[C@@H]3CCCc4ccccc43)N2C1=O | 4.94 |  |
| CN[C@@H](C)C(=O)N[C@H]1CCO[C@H]2c3ccccc3C(C(=O)N[C@@H]3CCCc4ccccc43)N2C1=O (some centres not stated) | 5.07 |  |
| CN[C@@H](C)C(=O)N[C@H]1CCO[C@H]2CC[C@@H](C(=O)n3ccc4ccccc43)N2C1=O | 5.92 |  |
| CN[C@@H](C)C(=O)N[C@H]1CC(=O)N[C@H]2CC(C)(C)C(C(=O)N[C@@H]3CCCc4ccccc43)N2C1=O (some centres not stated) | 5.70 and 5.75 |  |
| CN[C@@H](C)C(=O)N[C@H]1CCO[C@H]2CCC(C(=O)Nc3cccc4ccccc34)N2C1=O (some centres not stated) | 6.58 |  |
| CN[C@@H](C)C(=O)N[C@H]1CCO[C@H]2CC[C@H](C(=O)N[C@@H]3CCOc4ccccc43)N2C1=O |  | > 100000 nM (inactive) |
| CN[C@@H](C)C(=O)N[C@H]1CCO[C@H]2CC(C)(C)C(C(=O)Nc3ccccc3SSc3ccccc3NC(=O)C3N4C(=O)[C@@H](NC(=O)[C@H](C)NC)CCO[C@H]4CC3(C)C)N2C1=O (some centres not stated) | 6.30 |  |
| CN[C@@H](C)C(=O)N[C@H]1CCS[C@H]2CC[C@H](C(=O)N[C@@H]3CCCc4ccccc43)N2C1=O | 6.00 |  |
| CN[C@@H](C)C(=O)N[C@H]1CCO[C@H]2CCC(C(=O)NC(c3ccccc3)c3ccccc3)N2C1=O (some centres not stated) | 6.53 |  |
| CN[C@@H](C)C(=O)N[C@H]1CCO[C@H]2CC[C@@H](C(=O)N[C@@H]3CCOc4ccccc43)N2C1=O | 5.89 |  |
| CN[C@@H](C)C(=O)N[C@H]1CCCN(C(C)=O)C2CCC(C(=O)N[C@H]3CCCc4ccccc43)N2C1=O (some centres not stated) | 6.57 and 7.43 |  |
| CN[C@@H](C)C(=O)N[C@H]1CCSC2CCCC(C(=O)N[C@@H]3CCCc4ccccc43)N2C1=O (some centres not stated) | 6.44 and 5.60 and 6.22 |  |
| CN[C@@H](C)C(=O)N[C@@H]1C(=O)N2C(C(=O)Nc3cccc4ccccc34)CC[C@@H]2O[C@@H]1C (some centres not stated) | 7.11 |  |
| CN[C@@H](C)C(=O)N[C@H]1CCS[C@H]2CCC(C(=O)N[C@H]3CCCc4ccccc43)N2C1=O (some centres not stated) | 6.80 |  |

| Compound | pIC50 | IC50 |
| --- | --- | --- |
| CN[C@@H](C)C(=O)N[C@H]1CCO[C@H]2CC[C@@H](C(=O)N[C@@H]3CCCc4ccccc43)N2C1=O | 6.13 |  |
| CC(=O)N(C)[C@@H](C)C(=O)N[C@H]1CCCN(C(C)=O)[C@H]2CCC(C(=O)Nc3cccc4ccccc34)N2C1=O (some centres not stated) | 5.16 |  |
| CN[C@@H](C)C(=O)N[C@H]1CCS(=O)(=O)[C@H]2CC(C)(C)[C@@H](C(=O)N[C@@H]3CCCc4ccccc43)N2C1=O |  | > 100000 nM (inactive) |
| CN[C@@H](C)C(=O)N[C@H]1Cc2c([nH]c3ccccc23)[C@H]2CCC(C(=O)N[C@@H]3CCCc4ccccc43)N2C1=O (some centres not stated) | 7.03 |  |
| CN[C@@H](C)C(=O)N[C@H]1CCO[C@H]2CC[C@H](C(=O)n3ccc4ccccc43)N2C1=O | 6.83 |  |
| CN[C@@H](C)C(=O)N[C@H]1CCS[C@H]2CC[C@@H](C(=O)N[C@@H]3CCCc4ccccc43)N2C1=O | 6.85 |  |
| CN[C@@H](C)C(=O)N[C@H]1CCS(=O)(=O)[C@H]2CC[C@H](C(=O)N[C@@H]3CCCc4ccccc43)N2C1=O |  | > 100000 nM (inactive) |
| CN[C@@H](C)C(=O)N[C@H]1CCO[C@H]2CC3(CCCC3)C(C(=O)N[C@@H]3CCCc4ccccc43)N2C1=O (some centres not stated) | 5.87 |  |
| CN[C@@H](C)C(=O)N[C@H]1CCCN[C@H]2CCC(C(=O)N[C@H]3CCCc4ccccc43)N2C1=O (some centres not stated) | 6.10 |  |
| CN[C@@H](C)C(=O)N[C@H]1CCO[C@H]2CC[C@@H](C(=O)Nc3cccc4ccccc34)N2C1=O | 7.33 |  |
| CN[C@@H](C)C(=O)N[C@H]1Cc2cccc(O)c2[C@H]2CC(C)(C)C(C(=O)N[C@@H]3CCCc4ccccc43)N2C1=O (some centres not stated) | 4.83 |  |
| CN[C@@H](C)C(=O)N[C@H]1Cc2cc(O)ccc2[C@H]2CC(C)(C)C(C(=O)N[C@@H]3CCCc4ccccc43)N2C1=O (some centres not stated) |  | inactive |
| CN[C@@H](C)C(=O)N[C@H]1CCO[C@H]2CCC(C(=O)N[C@H]3CCCc4ccccc43)N2C1=O (some centres not stated) | 7.14 |  |
| CN[C@@H](C)C(=O)N[C@H]1Cc2cc(O)c(O)cc2[C@H]2CC(C)(C)C(C(=O)N[C@@H]3CCCc4ccccc43)N2C1=O (some centres not stated) |  | > 100000 nM (inactive) |
| CN[C@@H](C)C(=O)N[C@H]1CCN[C@H]2CCC(C(=O)N[C@@H]3CCCc4ccccc43)N2C1=O (some centres not stated) | 6.95 |  |
| CN[C@@H](C)C(=O)N[C@@H]1C(=O)N2C(C(=O)NC(c3ccccc3)c3ccccc3)CC[C@@H]2O[C@@H]1C (some centres not stated) | 6.63 |  |
